Results reported in patent publication EP1561465A2, “Methods of use of fluoroquinolone compounds against bacteria” (LG Life Sciences, Ltd., priority 1999, dated 2001).
Converted amounts (≈) assume the structure as drawn. Where two headings read alike, the source gives them in different places.

What was measured:
Aeromonas spp. = assay: MIC by agar dilution (NCCLS M7-A4), 288 enteropathogenic isolates, eight quinolones; assay type: cell-based; settings: Aeromonas spp. (n = 16)
Streptococcus pneumoniae [1] = assay: MIC by agar dilution (NCCLS), 411 isolates Buenos Aires 1998-99; assay type: cell-based; settings: for MIC / MIC90: Streptococcus pneumoniae; for MIC90: read-out: MIC90
Streptococcus pyogenes [2] = assay: as above; assay type: cell-based; settings: Streptococcus pyogenes (n = 69)
Streptococcus pyogenes [3] = assay: MIC by NCCLS reference broth microdilution, 450 respiratory tract pathogens; assay type: cell-based; settings: for MIC / MIC50 / MIC90: Streptococcus pyogenes
Haemophilus influenzae = assay: MIC by two-fold serial agar dilution, Sensitivity Disk agar-N (Kitasato isolates); assay type: cell-based; settings: Haemophilus influenzae (24)
Salmonella spp. = assay: MIC by NCCLS broth microdilution, 1100 Japanese clinical isolates 1997-1998; assay type: cell-based; settings: Salmonella spp. (n=29)
Proteus vulgaris = assay: as above; assay type: cell-based
Providencia rettgeri = assay: as above; assay type: cell-based
Serratia marcescens = assay: as above; assay type: cell-based
[4] = parameters: species or system healthy volunteers; settings: human, in vivo, po
E. coli [5] = assay: MIC and MBC by microdilution in Mueller-Hinton broth, uropathogens; assay type: cell-based
Description: (§1) MICs and MBCs were determined by a microdilution method with Mueller-Hinton broth. An inoculum of 1.3-9.4 x 10^5 colony forming units (CFU) per ml was used.
(§2) Strains included a reference strain E. coli ATCC 25922, susceptible to nalidixic acid (Nal-S) and the following clinical isolates obtained from complicated UTI patients: E. coli (resistant to nalidixic acid), K. pneumoniae, P. mirabilis , P. aeruginosa, […] (3 strains) and Enterococcus faecalis (2 strains).

K. pneumoniae = assay: as above; assay type: cell-based
Description: as §1, §2

P. aeruginosa [6] = assay: as above; assay type: cell-based
Description: as §1, §2

P. mirabilis [7] = assay: as above; assay type: cell-based
Description: as §1, §2

E. coli [8] = assay: Urinary bactericidal titers (UBT) and AUBTC of volunteers' urine; assay type: cell-based; settings: for AUBTC (range): urine after gemifloxacin 320 mg or ofloxacin 400 mg
P. mirabilis [9] = assay: as above; assay type: cell-based; settings: P. mirabilis (16) Laboratory No. 414; urine after gemifloxacin 320 mg or ofloxacin 400 mg
P. aeruginosa [10] = assay: as above; assay type: cell-based; settings: P. aeruginosa (16) Laboratory No. 568; urine after gemifloxacin 320 mg or ofloxacin 400 mg
S. aureus = assay: as above; assay type: cell-based; settings: urine after gemifloxacin 320 mg or ofloxacin 400 mg
E. faecalis = assay: as above; assay type: cell-based; settings: urine after gemifloxacin 320 mg or ofloxacin 400 mg
Klebsiella pneumoniae = assay: MIC by agar dilution (NCCLS), 322 nosocomial Gram negative isolates, Athens 1998; assay type: cell-based; settings: n = 56 isolates
Proteus mirabilis = assay: as above; assay type: cell-based; settings: Proteus mirabilis; n = 57 isolates
Streptococcus pneumoniae [11] = assay: MIC by E-test (broth microdilution for gemifloxacin), 107 pneumococcal carrier isolates, Athens 1998; assay type: cell-based; settings: E-test; for MIC Range: in µg/mL (unit assumed); for MIC50 / MIC90: Streptococcus pneumoniae; for MIC50: read-out: MIC50; for MIC90: read-out: MIC90
Description: Susceptibility testing was performed by agar dilution or epsilometer method (E-test), as recommended by the NCCLS. […] The susceptibility profiles of the strains were assessed using the Epsilometer method (E-test). The isolates were subdivided into two groups according to their penicillin susceptibility patterns (penicillin-susceptible and penicillin-intermediate.

Staphylococcus aureus = assay: MIC by agar macrodilution (NCCLS), 373 Gram positive isolates, Athens 1998; assay type: cell-based; settings: Methicillin-susceptible Staphylococcus aureus (n = 85)
[12] = Streptococcus pneumoniae (n = 90)
[13] = Streptococcus pyogenes (n = 100)
[14] = erythromycin resistant C phenotype [MLSB] (n = 20)
[15] = erythromycin resistant I phenotype [MLSB] (n = 20)
[16] = erythromycin resistant M phenotype (n = 20)
[17] = Penicillin-intermediate S. pneumoniae (n = 24)
[18] = Penicillin-susceptible S. pneumoniae (n = 107)

## CO/N=C1\CN(c2nc3c(cc2F)c(=O)c(C(=O)O)cn3C2CC2)CC1CN (racemic) [Gemifloxacin, (R,S)-7-(3-aminomethyl-4-methoxyiminopyrrolidin-1-yl)-1-cyclopropyl-6-fluoro-4-oxo-1,4-dihydro-1,8-naphthyridine-3-carboxylic acid]
Aeromonas spp.
  % Susceptible: 100%
  MIC50: ≤ 0.015 µg/mL
  MIC90: 0.03 µg/mL (≈ 0.077 µM)
  MIC Range: ≤0.015 to 0.12 µg/mL
Streptococcus pneumoniae [1]
  MIC: 0.125 µg/mL (≈ 0.321 µM)
Streptococcus pneumoniae [1]; [12]
  MIC Range: ≤0.004 to 0.125 µg/mL
  MIC90: 0.03 µg/mL (≈ 0.077 µM)
Streptococcus pneumoniae [1]; Ciprofloxacin-resistant S. pneumoniae, Strain 1, read-out: MIC
  MIC: 0.03 µg/mL (≈ 0.077 µM)
Streptococcus pneumoniae [1]; Ciprofloxacin-resistant S. pneumoniae, Strain 2, read-out: MIC
  MIC: 0.06 µg/mL (≈ 0.154 µM)
Streptococcus pneumoniae [1]; Ciprofloxacin-resistant S. pneumoniae, Strain 4, read-out: MIC
  MIC: 0.06 µg/mL (≈ 0.154 µM)
Streptococcus pneumoniae [1]; S. pneumoniae, Penicillin intermediate (n = 17)
  MIC90: 0.03 µg/mL (≈ 0.077 µM)
Streptococcus pneumoniae [1]; S. pneumoniae, Penicillin resistant (n = 4)
  MIC90: 0.03 µg/mL (≈ 0.077 µM)
Streptococcus pneumoniae [1]; S. pneumoniae, Penicillin susceptible (n = 69)
  MIC90: 0.03 µg/mL (≈ 0.077 µM)
Streptococcus pyogenes [2]
  MIC Range: ≤0.004 to 0.125 µg/mL
Streptococcus pyogenes [2]; read-out: MIC90
  MIC90: 0.03 µg/mL (≈ 0.077 µM)
Streptococcus pyogenes [3]; S. pyogenes
  activity higher than that of the other fluoroquinolones tested: 2-32 fold
Streptococcus pyogenes [3]; [13]
  MIC: 0.00375 to 0.06 µg/mL (≈ 0.00963 to 0.154 µM)
  MIC50: 0.015 µg/mL (≈ 0.0385 µM)
  MIC90: 0.03 µg/mL (≈ 0.077 µM)
Streptococcus pyogenes [3]; [14]
  MIC: 0.00375 to 0.03 µg/mL (≈ 0.00963 to 0.077 µM)
  MIC50: 0.015 µg/mL (≈ 0.0385 µM)
  MIC90: 0.015 µg/mL (≈ 0.0385 µM)
Streptococcus pyogenes [3]; [15]
  MIC: 0.00375 to 0.06 µg/mL (≈ 0.00963 to 0.154 µM)
  MIC50: 0.015 µg/mL (≈ 0.0385 µM)
  MIC90: 0.03 µg/mL (≈ 0.077 µM)
Streptococcus pyogenes [3]; [16]
  MIC: 0.00375 to 0.03 µg/mL (≈ 0.00963 to 0.077 µM)
  MIC50: 0.015 µg/mL (≈ 0.0385 µM)
  MIC90: 0.015 µg/mL (≈ 0.0385 µM)
Streptococcus pyogenes [3]; fully susceptible (n = 20)
  MIC: 0.0075 to 0.03 µg/mL (≈ 0.0193 to 0.077 µM)
  MIC50: 0.015 µg/mL (≈ 0.0385 µM)
  MIC90: 0.03 µg/mL (≈ 0.077 µM)
Streptococcus pyogenes [3]; multi-drug resistant (n = 20)
  MIC: 0.0075 to 0.015 µg/mL (≈ 0.0193 to 0.0385 µM)
  MIC50: 0.015 µg/mL (≈ 0.0385 µM)
  MIC90: 0.03 µg/mL (≈ 0.077 µM)
Haemophilus influenzae
  MIC50: 0.016 µg/mL (≈ 0.0411 µM)
  MIC90: 0.016 µg/mL (≈ 0.0411 µM)
  MIC Range: 0.008 to 0.031 µg/mL
Salmonella spp.
  MIC50: 0.032 µg/mL (≈ 0.0822 µM)
  MIC90: 0.032 µg/mL (≈ 0.0822 µM)
Proteus vulgaris; Proteus vulgaris
  MIC50: 0.125 µg/mL (≈ 0.321 µM)
Proteus vulgaris; Proteus vulgaris (n=25)
  MIC Range: 0.063 to 1 µg/mL
Proteus vulgaris; Proteus vulgaris (n=25), read-out: MIC90
  MIC90: 0.25 µg/mL (≈ 0.642 µM)
Providencia rettgeri; Providencia rettgeri
  MIC50: 0.125 µg/mL (≈ 0.321 µM)
Providencia rettgeri; Providencia rettgeri (n=12)
  MIC90: 8 µg/mL (≈ 20.5 µM)
  MIC Range: 0.063 to 16 µg/mL
Serratia marcescens; Serratia marcescens
  MIC50: 0.125 µg/mL (≈ 0.321 µM)
Serratia marcescens; Serratia marcescens (n=30)
  MIC90: 0.5 µg/mL (≈ 1.28 µM)
  MIC Range: 0.063 to 128 µg/mL
[4]
  tolerability: well tolerated
E. coli [5]; E. coli ATCC 25922, inoculum 1.3 CFU 10^5/ml
  MIC: 0.016 µg/mL (≈ 0.0411 µM)
E. coli [5]; E. coli Laboratory No. 523, inoculum 3.4 CFU 10^5/ml
  MIC: 0.06 µg/mL (≈ 0.154 µM)
E. coli [5]; Escherichia coli, ATCC25922, E. coli ATCC 25922 (reference strain), read-out: MIC
  MIC: 0.016 µg/mL (≈ 0.0411 µM)
E. coli [5]; Escherichia coli, ATCC25922, E. coli ATCC 25922, inoculum 1.3 CFU 10^5/ml
  MBC: 0.016 µg/mL (≈ 0.0411 µM)
E. coli [5]; Escherichia coli, E. coli Laboratory No. 523, inoculum 3.4 CFU 10^5/ml
  MBC: 0.06 µg/mL (≈ 0.154 µM)
E. coli [5]; Escherichia coli, E. coli clinical isolate (0.06/0.5), read-out: MIC
  MIC: 0.06 µg/mL (≈ 0.154 µM)
K. pneumoniae; K. pneumoniae Laboratory No. 595, inoculum 3.7 CFU 10^5/ml
  MIC: 0.03 µg/mL (≈ 0.077 µM)
K. pneumoniae; Klebsiella pneumoniae, K. pneumoniae Laboratory No. 595, inoculum 3.7 CFU 10^5/ml
  MBC: 0.03 µg/mL (≈ 0.077 µM)
K. pneumoniae; Klebsiella pneumoniae, K. pneumoniae clinical isolate, read-out: MIC
  MIC: 0.03 µg/mL (≈ 0.077 µM)
P. aeruginosa [6]; P. aeruginosa Laboratory No. 568, inoculum 5.6 CFU 10^5/ml
  MIC: 1 µg/mL (≈ 2.57 µM)
P. aeruginosa [6]; Pseudomonas aeruginosa, P. aeruginosa Laboratory No. 568, inoculum 5.6 CFU 10^5/ml
  MBC: 2 µg/mL (≈ 5.14 µM)
P. aeruginosa [6]; Pseudomonas aeruginosa, P. aeruginosa clinical isolate, read-out: MIC
  MIC: 1 µg/mL (≈ 2.57 µM)
P. mirabilis [7]; P. mirabilis Laboratory No. 414, inoculum 2.5 CFU 10^5/ml
  MIC: 0.125 µg/mL (≈ 0.321 µM)
P. mirabilis [7]; Proteus mirabilis
  MIC: 0.125 µg/mL (≈ 0.321 µM)
P. mirabilis [7]; Proteus mirabilis, P. mirabilis Laboratory No. 414, inoculum 2.5 CFU 10^5/ml
  MBC: 0.25 µg/mL (≈ 0.642 µM)
E. coli [8]; E. coli (16) ATCC 25922
  AUBTC (range): 546 (174-816)
E. coli [8]; E. coli (16) Laboratory No. 523
  AUBTC (range): 237(48-384)
E. coli [8]; reference strain E. coli ATCC 25922, 320 mg gemifloxacin / 400 mg ofloxacin
  time for which median UBTs exceed 0: 5 days
P. mirabilis [9]
  AUBTC (range): 261 (120-510)
P. aeruginosa [10]
  AUBTC (range): 48 (12-300)
S. aureus; S. aureus (13) Laboratory No. 636
  AUBTC (range): 108 (0-408)
S. aureus; S. aureus (16) Laboratory No. 83
  AUBTC (range): 540 (246-834)
S. aureus; S. aureus (16) Laboratory No. 161
  AUBTC (range): 60 (0-144)
E. faecalis; E. faecalis (13) Laboratory No. 55
  AUBTC (range): 39 (0-102)
E. faecalis; E. faecalis (16) Laboratory No. 60
  AUBTC (range): 246 (96-516)
Klebsiella pneumoniae; Klebsiella pneumoniae
  MIC50: 0.06 µg/mL (≈ 0.154 µM)
  MIC90: 0.5 µg/mL (≈ 1.28 µM)
Klebsiella pneumoniae
  MIC Range: ≤0.03 to 4 µg/mL
Proteus mirabilis
  MIC50: 0.25 µg/mL (≈ 0.642 µM)
  MIC90: 16 µg/mL (≈ 41.1 µM)
Streptococcus pneumoniae [11]; [17]
  MIC Range: 0.004-0.125
  MIC50: 0.064 µg/mL (≈ 0.164 µM)
  MIC90: 0.23 µg/mL (≈ 0.591 µM)
Streptococcus pneumoniae [11]; [18]
  MIC Range: 0.002-0.19
  MIC50: 0.032 µg/mL (≈ 0.0822 µM)
  MIC90: 0.064 µg/mL (≈ 0.164 µM)
Staphylococcus aureus
  MIC Range: ≤0.03 to 4 µg/mL
Staphylococcus aureus; read-out: MIC50
  MIC50: 0.06 µg/mL (≈ 0.154 µM)
Staphylococcus aureus; read-out: MIC90
  MIC90: 0.125 µg/mL (≈ 0.321 µM)
